Test systems include ACHN; CAKI-1; COLO 205; DU-145; HL-60; HOP-92; KM12; LOX IMVI; MDA-MB-231; MDA-MB-435; Malme-3M; NCI-H226; SF-295; SK-MEL-2; SR; SW-620; T47D; U-251; OVCAR-5.
What all share (assay): DTP human tumour cell line panel, 48 h

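Each compound was tested at five concentrations against cells in 96-well plates for 48 hours. Abbreviation: GI50, concentration required for 50% inhibition of growth.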 The source made the active and inactive calls. Rule as the data show it: active = GI50 up to about 1.1 µM and inactive = higher.

A word on the GI50: it is the concentration giving 50% growth inhibition.

`O=C1C/C(=N/c2ccc(Cl)cc2)C(c2ccccc2)N1c1ccccc1` (configuration not stated): the GI50 in the assay with ACHN was 6.43 µM (inactive); with CAKI-1, 1.59 µM (inactive); in the assay on COLO 205 it was 3.66 µM (inactive); in the assay with DU-145, 6.61 µM (inactive); with HL-60, 2.96 µM (inactive); in the assay on HOP-92, 10.3 µM (inactive). Besides, the GI50 in the assay with KM12 was 6.61 µM (inactive); in the assay on LOX IMVI, 6.05 µM (inactive); with MDA-MB-231 it was 7.21 µM (inactive); with MDA-MB-435, 2.15 µM (inactive); with Malme-3M, 19.5 µM (inactive); in the assay with NCI-H226, 10.1 µM (inactive). In addition, the GI50 was 8.61 µM (inactive) with SF-295; 2.7 µM (inactive) in the assay with SK-MEL-2; 5.43 µM (inactive) in the assay with SR; 10.2 µM (inactive) with SW-620; 1.38 µM (inactive) with T47D; 32.7 µM (inactive) in the assay with U-251.
As for `CCOC(=O)c1ccc(-c2cccs2)n1C`, the GI50 is > 100 µM (inactive) with ACHN; > 100 µM (inactive) in the assay with CAKI-1; > 100 µM (inactive) with COLO 205; > 100 µM (inactive) with DU-145; > 69.5 µM (inactive) with HL-60; > 43.1 µM (inactive) in the assay on HOP-92. For the same molecule, the GI50 is > 100 µM (inactive) with KM12; > 77.8 µM (inactive) with LOX IMVI; > 100 µM (inactive) in the assay on MDA-MB-231; > 92.5 µM (inactive) with MDA-MB-435; > 67.1 µM (inactive) with Malme-3M; > 100 µM (inactive) in the assay on NCI-H226. Further, the GI50 in the assay with OVCAR-5 was > 100 µM (inactive); in the assay on SF-295 it was > 95.3 µM (inactive); with SK-MEL-2 it was > 100 µM (inactive); with SR, > 64.9 µM (inactive); in the assay on SW-620, > 80.7 µM (inactive); with T47D, 19 µM (inactive). Besides, the GI50 in the assay on U-251 is > 100 µM (inactive).
On to `O=C(/C=C/c1ccco1)CC(=O)/C=C/c1ccco1`, for which the GI50 in the assay on ACHN is 14.8 µM (inactive); with CAKI-1 it was 14.7 µM (inactive); in the assay with COLO 205 it was > 10 µM (inactive); in the assay with DU-145 it was > 10 µM (inactive); in the assay on HL-60, 5.55 µM (inactive); in the assay with HOP-92 it was 28.8 µM (inactive). In addition, the GI50 with KM12 is 28.8 µM (inactive); with LOX IMVI it was 4.99 µM (inactive); in the assay with MDA-MB-231 it was > 10 µM (inactive); in the assay on MDA-MB-435 it was 10.1 µM (inactive); in the assay with Malme-3M it was 13 µM (inactive); with NCI-H226, > 10 µM (inactive). The GI50 in the assay on OVCAR-5 was 16.9 µM (inactive); with SF-295, > 10 µM (inactive); in the assay with SK-MEL-2 it was 14.3 µM (inactive); in the assay with SR it was 4.66 µM (inactive); with SW-620 it was 10.9 µM (inactive); in the assay on T47D, 8.67 µM (inactive). In the assay with U-251, the GI50 is 13.7 µM (inactive).
For the molecule `ClCc1nn(-c2ccccc2)c(CCl)c1CCl`, the GI50 is 2.96 µM (inactive) with ACHN; 7.31 µM (inactive) in the assay on CAKI-1; 3.88 µM (inactive) with COLO 205; 4.68 µM (inactive) with DU-145; 1.82 µM (inactive) with HL-60; 3.33 µM (inactive) in the assay with HOP-92. Further, the GI50 is 3.37 µM (inactive) in the assay on KM12; 1.47 µM (inactive) in the assay on LOX IMVI; 4.34 µM (inactive) with MDA-MB-231; 2.41 µM (inactive) in the assay with MDA-MB-435; 2.99 µM (inactive) in the assay with Malme-3M; 4.45 µM (inactive) in the assay on NCI-H226. Besides, the GI50 with OVCAR-5 was 7.16 µM (inactive); with SF-295, 6 µM (inactive); with SK-MEL-2 it was 5.71 µM (inactive); in the assay with SR, 0.813 µM (active); in the assay on SW-620, 2.55 µM (inactive); in the assay with T47D it was 3.55 µM (inactive). Also, the GI50 in the assay on U-251 is 2.35 µM (inactive).
For the molecule `COc1cc(/C=C/c2nc(N)nnc2C)cc(OC)c1OC`, the GI50 with ACHN is 15.5 µM (inactive); with CAKI-1, 6.56 µM (inactive); in the assay on COLO 205, 10.3 µM (inactive); in the assay with DU-145, > 57 µM (inactive); in the assay on HL-60, 3.03 µM (inactive); in the assay on HOP-92, 16.6 µM (inactive). Also, the GI50 with KM12 was 10.9 µM (inactive); in the assay on LOX IMVI, 7.31 µM (inactive); with MDA-MB-231, > 84.1 µM (inactive); with MDA-MB-435, 9.33 µM (inactive); in the assay with Malme-3M, 13.6 µM (inactive); with NCI-H226, 10.1 µM (inactive). Further, the GI50 in the assay on OVCAR-5 was > 38.5 µM (inactive); with SF-295 it was 29.2 µM (inactive); with SK-MEL-2 it was > 37.9 µM (inactive); with SR it was 7.52 µM (inactive); in the assay with SW-620, > 57.8 µM (inactive); in the assay with T47D, 12.1 µM (inactive). The GI50 in the assay on U-251 was 18.4 µM (inactive).
On to `COC(=O)c1cc(C)ccc1C1CN=NC12Cc1cccc(C)c1C2=O` (configuration not stated), for which the GI50 in the assay on ACHN is 28.2 µM (inactive); in the assay with CAKI-1, 43.3 µM (inactive); with DU-145, 42.5 µM (inactive); in the assay with HL-60, 12.7 µM (inactive); in the assay with HOP-92, 30.5 µM (inactive); with KM12, 26.2 µM (inactive). For the same molecule, the GI50 in the assay with LOX IMVI was 16.6 µM (inactive); with MDA-MB-231, 25.6 µM (inactive); with MDA-MB-435 it was 26.3 µM (inactive); in the assay with Malme-3M, 24.2 µM (inactive); in the assay with NCI-H226 it was 33.1 µM (inactive); in the assay with OVCAR-5, 17.9 µM (inactive). In addition, the GI50 with SF-295 is 36.1 µM (inactive); in the assay on SR it was 26.2 µM (inactive); in the assay on SW-620, 38.4 µM (inactive); with T47D, 12.3 µM (inactive); with U-251, 48.9 µM (inactive).
Regarding `COc1cc(-c2cn(S(=O)(=O)c3ccc(C)cc3)c3ccccc23)nc(-c2cn(S(=O)(=O)c3ccc(C)cc3)c3ccccc23)n1`, the GI50 with ACHN was 0.927 µM (active); with CAKI-1, 1.3 µM (inactive); in the assay on COLO 205 it was 0.745 µM (active); in the assay on DU-145, 0.625 µM (active); in the assay with HL-60, 2.19 µM (inactive); with HOP-92 it was 4.98 µM (inactive). The GI50 is 0.438 µM (active) with KM12; 0.6 µM (active) with LOX IMVI; 0.933 µM (active) in the assay on MDA-MB-231; 0.18 µM (active) in the assay on MDA-MB-435; 0.935 µM (active) with NCI-H226; 1.13 µM (inactive) in the assay on OVCAR-5. Besides, the GI50 in the assay with SF-295 was 0.432 µM (active); in the assay on SK-MEL-2, 0.984 µM (active); in the assay on SR, 0.216 µM (active); in the assay on SW-620, 2.9 µM (inactive); in the assay with T47D it was > 100 µM (inactive); in the assay with U-251, 0.354 µM (active).
Regarding `O=C1c2cc3ccccc3cc2C2(c3ccc(Cl)cc3)N[C@H]3CCCC[C@@H]3N12` (some centres not stated), the GI50 is 15.2 µM (inactive) in the assay with ACHN; 22.6 µM (inactive) in the assay with CAKI-1; 15.3 µM (inactive) in the assay on COLO 205; 17.9 µM (inactive) in the assay on DU-145; 13.6 µM (inactive) with HL-60; 27.8 µM (inactive) with HOP-92. For the same molecule, the GI50 was 16.9 µM (inactive) in the assay with KM12; 19 µM (inactive) in the assay on LOX IMVI; 13.3 µM (inactive) with MDA-MB-231; 21.9 µM (inactive) with MDA-MB-435; 15.1 µM (inactive) in the assay with Malme-3M; 21 µM (inactive) in the assay with OVCAR-5. The GI50 was 13.8 µM (inactive) in the assay with SF-295; 16.4 µM (inactive) with SK-MEL-2; 14.7 µM (inactive) in the assay with SR; 17.4 µM (inactive) in the assay with SW-620; 7.4 µM (inactive) in the assay on T47D; 14.2 µM (inactive) in the assay with U-251.
Take `CC(C)c1[nH]nc(C(N)=O)c1/N=N/N(C)C`: the GI50 in the assay on ACHN was 65 µM (inactive); with CAKI-1, 16 µM (inactive); in the assay on COLO 205, 67.9 µM (inactive); with DU-145 it was 97.9 µM (inactive); with HL-60, > 100 µM (inactive); in the assay with HOP-92, 47.4 µM (inactive). Further, the GI50 in the assay with KM12 is 61.1 µM (inactive); in the assay on LOX IMVI it was 35.7 µM (inactive); in the assay with MDA-MB-231, > 100 µM (inactive); in the assay on MDA-MB-435, 82.2 µM (inactive); in the assay on Malme-3M it was > 100 µM (inactive); in the assay on NCI-H226, 24.1 µM (inactive). For the same molecule, the GI50 with SF-295 was 64.7 µM (inactive); in the assay on SK-MEL-2, > 100 µM (inactive); in the assay on SR, 17.1 µM (inactive); with SW-620 it was > 100 µM (inactive); with T47D, 79.6 µM (inactive); with U-251 it was 49.7 µM (inactive).
For `CC(=O)c1ccc2c(c1)C(=O)c1sc(C(C)=O)cc1C2=O`, the GI50 in the assay on ACHN is 0.736 µM (active); in the assay with CAKI-1, 1.75 µM (inactive); in the assay on COLO 205, 1.69 µM (inactive); in the assay with DU-145 it was 1.01 µM (active); with HL-60, 0.24 µM (active); in the assay on HOP-92, 1.42 µM (inactive). Further, the GI50 was 1.01 µM (active) in the assay on KM12; 0.22 µM (active) with LOX IMVI; 1.23 µM (inactive) in the assay on MDA-MB-231; 1.18 µM (inactive) with MDA-MB-435; 0.526 µM (active) in the assay with Malme-3M; 1.04 µM (active) in the assay with NCI-H226. Also, the GI50 is 1.08 µM (active) in the assay on OVCAR-5; 1.01 µM (active) in the assay with SF-295; 1.47 µM (inactive) in the assay with SK-MEL-2; 0.419 µM (active) with SR; 0.738 µM (active) in the assay on SW-620; 1.32 µM (inactive) in the assay on T47D. Moreover, the GI50 with U-251 is 1.56 µM (inactive).
Consider `Cc1ccc2c(O)cc(-c3ccsc3)nc2n1`, for which the GI50 with ACHN is 6.98 µM (inactive); in the assay with CAKI-1, 6.95 µM (inactive); in the assay with COLO 205 it was 3.21 µM (inactive); in the assay on DU-145, 9.79 µM (inactive); with HL-60 it was 2.17 µM (inactive); with HOP-92, > 24.6 µM (inactive). Moreover, the GI50 with KM12 was 4.33 µM (inactive); in the assay on LOX IMVI, 3.62 µM (inactive); in the assay with MDA-MB-231 it was 11.5 µM (inactive); in the assay with MDA-MB-435, 0.597 µM (active); with Malme-3M, 3.66 µM (inactive); in the assay with NCI-H226, 4.13 µM (inactive). For the same molecule, the GI50 was 15.8 µM (inactive) in the assay on OVCAR-5; 3.44 µM (inactive) with SF-295; 0.361 µM (active) in the assay on SR; 1.75 µM (inactive) in the assay on SW-620; 5.01 µM (inactive) in the assay on T47D; 4.65 µM (inactive) in the assay on U-251.

The values above are taken from ChEMBL document CHEMBL1201862, “PubChem BioAssay data set” (2004).
